The values that follow come from US4914245A, “Culpin” (E. R. Squibb & Sons, Inc., priority 1989, dated 1990).

What all share (format): cell-based
Assay [1] relates to Candida tropicalis. Kind of assay: agar dilution assay (MIC) vs Candida tropicalis SC 2963. As to conditions: Candida tropicalis S.C. No. 2963; F-4 agar; 10^3 CFU. How it is done:
(§1) The following methodology was used to determine the minimum inhibitory concentration (hereinafter referred to as MIC) of the compounds of this invention against bacteria. The test organisms were grown in 20 ml of Antibiotic Assay Broth (Difco) by inoculating the broth (in tubes) with a loopful of the organism from a BHI (Difco) agar slant. The inoculated tubes were incubated at 37° C. for 18 to 24 hours. These cultures were assumed to contain 10^9 colony forming units (CFU) per ml. The cultures were diluted 1:100 to give a final inoculum level of 10^7 CFU; dilutions were made with Yeast Beef Broth (Difco). The test compounds were dissolved in an appropriate diluent at a concentration of 1,000 μg/ml. Two-fold dilutions were made in Yeast Beef Broth (Difco), resulting in a range from 1000 μg/ml to 0.5 μg/ml. A 1.5 ml portion of each dilution was placed into individual petri dishes to which 13.5 ml of K-10 agar was added. The composition of K-10 agar is
(§2) The final drug concentration in the agar ranged from 100 μg/ml to 0.05 μg/ml. Organism growth control plates containing agar only were prepared and inoculated before and after the test plates. […]
(§3) The plates were incubated at 37° C. for 18 hours and the MICs determined. […]

In assay [2] the test system is Streptococcus agalactiae. Kind of assay: agar dilution assay (MIC) vs Streptococcus agalactiae SC 9287. As to conditions: Streptococcus agalactiae S.C. No. 9287; K-10 agar; 10^4 CFU; 37° C., 18 hours. How it is done:
as §1, with “agar is The final drug concentration in the agar ranged from 100 μg/ml to 0.05 μg/ml. Organism growth control plates containing agar only were prepared and inoculated before and after the test plates. […] The plates were incubated at 37° C. for 18 hours and the MICs determined. […]” for “agar is”
In general terms: Agar dilution tests growth on a series of plates holding different concentrations.

Assay [3] concerns Candida tropicalis. Kind of assay: agar dilution assay (MIC) vs Candida tropicalis SC 9861. As to conditions: Candida tropicalis S.C. No. 9861; F-4 agar; 10^3 CFU. How it is done:
as §1, §2, §3

The subject of assay [4] is Mycobacterium fortuitum. Kind of assay: agar dilution assay (MIC) vs Mycobacterium fortuitum SC 8571. As to conditions: Mycolicibacterium fortuitum; Mycobacterium fortuitum S.C. No. 8571; K-10 agar; 10^4 CFU; 37° C., 18 hours. How it is done:
as §1, with “agar is The final drug concentration in the agar ranged from 100 μg/ml to 0.05 μg/ml. Organism growth control plates containing agar only were prepared and inoculated before and after the test plates. […] The plates were incubated at 37° C. for 18 hours and the MICs determined. […]” for “agar is”

Assay [5] relates to Escherichia coli. Kind of assay: agar dilution assay (MIC) vs Escherichia coli SC 10909. As to conditions: Escherichia coli S.C. No. 10909; K-10 agar; 10^4 CFU; 37° C., 18 hours. On the procedure: as §1, with “agar is The final drug concentration in the agar ranged from 100 μg/ml to 0.05 μg/ml. Organism growth control plates containing agar only were prepared and inoculated before and after the test plates. […] The plates were incubated at 37° C. for 18 hours and the MICs determined. […]” for “agar is”

The test system of assay [6] is Micrococcus luteus. Kind of assay: agar dilution assay (MIC) vs Micrococcus luteus SC 2495. As to conditions: Micrococcus luteus S.C. No. 2495; K-10 agar; 10^4 CFU; 37° C., 18 hours. How it is done: as §1, with “agar is The final drug concentration in the agar ranged from 100 μg/ml to 0.05 μg/ml. Organism growth control plates containing agar only were prepared and inoculated before and after the test plates. […] The plates were incubated at 37° C. for 18 hours and the MICs determined. […]” for “agar is”

≈ marks a conversion by molar mass, not a printed value.

A word on the MIC: it is the smallest concentration in the dilution series that meets the test's criterion for growth inhibition. The low end stands for inhibition by little substance, the high end for a need for much substance. Consider `C=C(C)C#Cc1cc(O)c(CC=C(C)C)cc1O` [culpin, 2-(3-methyl-2-butenyl)-5-(3-methyl-3-buten-1-ynyl)-1,4-benzenediol], for which the MIC in assay [1] was determined as 50 µg/mL (≈ 206 µM); in assay [2], 50 µg/mL (≈ 206 µM); in assay [3] it was 50 µg/mL (≈ 206 µM); in assay [4], 50 µg/mL (≈ 206 µM); in assay [5] it was 100 µg/mL (≈ 413 µM); in assay [6] it was 100 µg/mL (≈ 413 µM).
